One may read the IC50 as the concentration that inhibits the measured activity by half. Read a high IC50 as a need for much substance.

Structures are written as SMILES.

This passage reports IC50 results from US9212182B2, “Bicyclic sulfonamide compounds as sodium channel inhibitors” (AMGEN INC., priority 2013, dated 2015).

Sequence of Nav 1.7 (Q15858 whole entry): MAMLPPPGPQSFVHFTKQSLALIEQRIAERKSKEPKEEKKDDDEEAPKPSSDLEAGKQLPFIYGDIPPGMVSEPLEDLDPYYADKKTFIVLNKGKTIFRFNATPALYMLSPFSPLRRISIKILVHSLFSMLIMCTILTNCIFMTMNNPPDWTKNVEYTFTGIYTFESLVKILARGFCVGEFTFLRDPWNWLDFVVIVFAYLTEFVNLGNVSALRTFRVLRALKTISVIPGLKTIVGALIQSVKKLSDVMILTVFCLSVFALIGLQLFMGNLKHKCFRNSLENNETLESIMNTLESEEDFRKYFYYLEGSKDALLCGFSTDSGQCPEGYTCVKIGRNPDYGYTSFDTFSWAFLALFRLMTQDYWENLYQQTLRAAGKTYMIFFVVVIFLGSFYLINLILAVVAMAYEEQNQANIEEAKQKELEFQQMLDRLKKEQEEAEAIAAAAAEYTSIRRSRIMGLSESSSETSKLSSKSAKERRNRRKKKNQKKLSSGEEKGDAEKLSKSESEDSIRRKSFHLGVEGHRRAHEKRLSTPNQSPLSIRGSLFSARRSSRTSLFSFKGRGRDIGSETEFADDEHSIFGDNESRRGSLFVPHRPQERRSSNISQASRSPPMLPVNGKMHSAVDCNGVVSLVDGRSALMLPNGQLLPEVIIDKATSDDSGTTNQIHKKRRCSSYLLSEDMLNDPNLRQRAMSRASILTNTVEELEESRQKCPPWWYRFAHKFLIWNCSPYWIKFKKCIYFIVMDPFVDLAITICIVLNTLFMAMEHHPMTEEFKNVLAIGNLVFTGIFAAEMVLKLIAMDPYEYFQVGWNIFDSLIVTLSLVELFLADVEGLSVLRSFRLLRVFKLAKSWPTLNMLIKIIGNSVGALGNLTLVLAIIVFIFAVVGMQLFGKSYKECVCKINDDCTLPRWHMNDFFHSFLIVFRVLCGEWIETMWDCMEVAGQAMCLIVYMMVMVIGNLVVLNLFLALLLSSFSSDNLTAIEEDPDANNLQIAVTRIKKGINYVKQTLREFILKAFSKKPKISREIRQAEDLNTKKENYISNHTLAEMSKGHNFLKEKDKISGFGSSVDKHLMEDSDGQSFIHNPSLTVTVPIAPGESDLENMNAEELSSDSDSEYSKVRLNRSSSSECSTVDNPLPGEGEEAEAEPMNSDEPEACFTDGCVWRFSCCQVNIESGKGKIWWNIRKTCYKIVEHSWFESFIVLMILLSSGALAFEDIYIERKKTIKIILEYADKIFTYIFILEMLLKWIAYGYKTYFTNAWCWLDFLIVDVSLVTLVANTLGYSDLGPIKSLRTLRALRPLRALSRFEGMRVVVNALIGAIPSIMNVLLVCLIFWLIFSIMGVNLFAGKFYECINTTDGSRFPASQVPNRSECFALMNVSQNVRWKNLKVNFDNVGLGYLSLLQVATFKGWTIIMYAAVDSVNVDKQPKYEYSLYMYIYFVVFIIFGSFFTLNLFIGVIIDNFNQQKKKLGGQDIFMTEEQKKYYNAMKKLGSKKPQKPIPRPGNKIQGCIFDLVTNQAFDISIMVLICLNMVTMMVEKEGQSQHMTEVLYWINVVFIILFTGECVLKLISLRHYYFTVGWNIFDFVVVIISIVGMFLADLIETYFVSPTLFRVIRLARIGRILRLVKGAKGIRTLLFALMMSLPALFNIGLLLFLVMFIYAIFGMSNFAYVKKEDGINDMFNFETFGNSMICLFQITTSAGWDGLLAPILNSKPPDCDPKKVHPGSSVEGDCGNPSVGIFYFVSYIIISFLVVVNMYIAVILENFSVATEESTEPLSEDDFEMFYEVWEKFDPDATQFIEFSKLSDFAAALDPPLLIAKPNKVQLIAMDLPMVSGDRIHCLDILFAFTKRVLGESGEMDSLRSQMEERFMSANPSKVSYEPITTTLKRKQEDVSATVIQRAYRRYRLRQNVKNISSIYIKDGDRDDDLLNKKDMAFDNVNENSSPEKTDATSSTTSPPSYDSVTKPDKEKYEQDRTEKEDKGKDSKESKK

The experiment has as its target Nav 1.7 (Homo sapiens (Human), UniProt Q15858). Description: in-vitro Nav 1.7 PX (IC50). The experiment is classed as cell-based. The following applies: in-vitro Nav 1.7 PX data.
Regarding `COc1cc(-c2cc(F)cc(Cl)c2)c(F)cc1-n1c(=O)ccc2cc(S(=O)(=O)Nc3ccsn3)ccc21` [Example 921, 1-(3′-chloro-2,5′-difluoro-5-methoxy-4-biphenylyl)-N-3-isothiazolyl-2-oxo-1,2-dihydro-6-quinolinesulfonamide], the IC50 amounted to 37 nM. That is a double-digit nanomolar value.
The compound `COc1cc(-c2cc(F)cc(Cl)c2)c(F)cc1-n1c(=O)ccc2cc(S(=O)(=O)Nc3cnsn3)ccc21` [Example 922, 1-(3′-chloro-2,5′-difluoro-5-methoxy-4-biphenylyl)-2-oxo-N-1,2,5-thiadiazol-3-yl-1,2-dihydro-6-quinolinesulfonamide] returned an IC50 of 4 nM. This IC50 lies about 9.2-fold lower than the previous one.
Under `COc1cc(Cl)cc(-c2ccc(-n3c(=O)ccc4cc(S(=O)(=O)Nc5ncccn5)ccc43)c(OC)c2)c1` [Example 923, 1-(3′-chloro-3,5′-dimethoxy-4-biphenylyl)-2-oxo-N-2-pyrimidinyl-1,2-dihydro-6-quinolinesulfonamide] stands 12 nM.
Under `COc1cc(Cl)cc(-c2ccc(-n3c(=O)ccc4cc(S(=O)(=O)Nc5ncco5)ccc43)c(OC)c2)c1` [Example 925, 1-(3′-chloro-3,5′-dimethoxy-4-biphenylyl)-N-1,3-oxazol-2-yl-2-oxo-1,2-dihydro-6-quinolinesulfonamide] stands 22 nM.
Turning to `COc1cc(Cl)cc(-c2cc(OC)c(-n3c(=O)ccc4cc(S(=O)(=O)Nc5ncco5)ccc43)cc2F)c1` [Example 926, 1-(3′-chloro-2-fluoro-5,5′-dimethoxy-4-biphenylyl)-N-1,3-oxazol-2-yl-2-oxo-1,2-dihydro-6-quinolinesulfonamide], the IC50 was 6 nM.
Compound `COc1cc(Cl)cc(-c2ccc(-n3c(=O)ccc4cc(S(=O)(=O)Nc5ncc(F)cn5)ccc43)c(OC)c2)c1` [Example 927, 1-(3′-chloro-3,5′-dimethoxy-4-biphenylyl)-N-(5-fluoro-2-pyrimidinyl)-2-oxo-1,2-dihydro-6-quinolinesulfonamide] showed an IC50 of 15 nM.
For `COc1cc(Cl)cc(-c2ccc(-n3c(=O)ccc4cc(S(=O)(=O)Nc5cccnn5)ccc43)c(OC)c2)c1` [Example 928, 1-(3′-chloro-3,5′-dimethoxy-4-biphenylyl)-2-oxo-N-3-pyridazinyl-1,2-dihydro-6-quinolinesulfonamide], the 50% inhibitory concentration (IC50) is 8 nM.
On to `COc1cc(Cl)cc(-c2cc(OC)c(-n3c(=O)ccc4cc(S(=O)(=O)Nc5ncc(F)cn5)ccc43)cc2F)c1` [Example 929, 1-(3′-chloro-2-fluoro-5,5′-dimethoxy-4-biphenylyl)-N-(5-fluoro-2-pyrimidinyl)-2-oxo-1,2-dihydro-6-quinolinesulfonamide], for which it took 23 nM to reach half-maximal inhibition (IC50).
In turn, `COc1cc(Cl)cc(-c2cc(OC)c(-n3c(=O)ccc4cc(S(=O)(=O)Nc5cccnn5)ccc43)cc2F)c1` [Example 930, 1-(3′-chloro-2-fluoro-5,5′-dimethoxy-4-biphenylyl)-2-oxo-N-3-pyridazinyl-1,2-dihydro-6-quinolinesulfonamide] showed an IC50 of 14 nM.
Regarding `COc1cc(-c2ccc(Cl)c(C)c2)c(F)cc1-n1c(=O)ccc2cc(S(=O)(=O)Nc3cc(C)on3)ccc21` [Example 931, 1-(4′-chloro-2-fluoro-5-methoxy-3′-methyl-4-biphenylyl)-N-(5-methyl-3-isoxazolyl)-2-oxo-1,2-dihydro-6-quinolinesulfonamide], the IC50 worked out at 128 nM.
On to `COc1cc(-c2ccc(Cl)c(C)c2)c(F)cc1-n1c(=O)ccc2cc(S(=O)(=O)Nc3cscn3)ccc21` [Example 932, 1-(4′-chloro-2-fluoro-5-methoxy-3′-methyl-4-biphenylyl)-2-oxo-N-1,3-thiazol-4-yl-1,2-dihydro-6-quinolinesulfonamide], for which inhibition was half-maximal at 78 nM (IC50). Against the preceding compound, the IC50 is about 1.6-fold lower.
Under `COc1cc(-c2cc(F)cc(Cl)c2)c(F)cc1-n1c(=O)ccc2cc(S(=O)(=O)Nc3cc(C)ncn3)ccc21` [Example 933, 1-(3′-chloro-2,5′-difluoro-5-methoxy-4-biphenylyl)-N-(6-methyl-4-pyrimidinyl)-2-oxo-1,2-dihydro-6-quinolinesulfonamide] stands 8 nM.
